# Source: patent US20240246979A1, “cGAS INHIBITORS” (Eli Lilly and Company, priority 2022, published 2024)
# Legend:
# [1] = biological target: T1, cGAS (Homo sapiens, UniProt Q8N884); test: Cellular assay to measure cGAS activity (IFNb AlphaLISA in THP1 cells stimulated by RDG-Adenovirus-GFP); format: cell-based; parameters: host or cells: THP1 cells differentiated with PMA and stimulated with RDG-Adenovirus-GFP; conditions: PMA-differentiated THP1 cells, RDG-Adenovirus-GFP at 1000 MOI; inhibition of IFNb production as marker for cGAS activity
# T1 sequence (Q8N884 whole entry): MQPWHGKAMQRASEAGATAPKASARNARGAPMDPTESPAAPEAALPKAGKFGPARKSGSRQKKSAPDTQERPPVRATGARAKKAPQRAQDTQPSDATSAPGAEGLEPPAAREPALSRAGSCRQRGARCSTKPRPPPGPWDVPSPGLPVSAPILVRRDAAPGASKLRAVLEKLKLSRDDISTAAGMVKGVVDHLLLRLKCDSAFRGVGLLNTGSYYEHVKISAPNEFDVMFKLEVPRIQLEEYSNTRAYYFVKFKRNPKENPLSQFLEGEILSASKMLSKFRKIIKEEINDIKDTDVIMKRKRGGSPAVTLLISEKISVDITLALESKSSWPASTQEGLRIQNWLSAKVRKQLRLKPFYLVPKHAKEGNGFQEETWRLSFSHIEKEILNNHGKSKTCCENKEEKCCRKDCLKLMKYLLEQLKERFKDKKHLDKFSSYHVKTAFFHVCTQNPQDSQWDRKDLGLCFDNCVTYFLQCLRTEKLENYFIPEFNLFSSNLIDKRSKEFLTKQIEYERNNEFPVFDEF
# Procedure, shortened: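 The readout is secreted IFNb measured by AlphaLISA after overnight compound exposure. THP1 cells, differentiated with PMA for 24 h and rested overnight, were infected with RDG-Adenovirus-GFP (1000 MOI, 4 h) before compounds were added; IC50 came from a 4-parameter logistic fit of inhibition against log concentration.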
# [2] = biological target: T1, cGAS; test: In vitro inhibition assay of cGAS activity (cGAMP production, RapidFire mass spectrometry); format: biochemical; parameters: Insert cDNA encoding full-length of human cGAS; His6; made in house; host or cells: E. coli BL21(DE3); conditions: 10 nM recombinant human cGAS, 60 nM 75-bp dsDNA, 50 μM ATP, 50 μM GTP, 3 hrs
# Procedure, shortened: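 Reactions in 10 mM Tris-Cl pH 7.5, 5 mM MgCl2, 0.01% Triton X-100 contained serially diluted compound, 10 nM recombinant cGAS, dsDNA activator and 50 μM each of ATP and GTP, run 3 hrs at ambient temperature. After formic acid quench, cGAMP output was measured by mass spectrometry and percent inhibition versus log concentration was fitted for IC50.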
SMILES,IC50 [1] [nM],IC50 [2] [nM]
"CC1C(=O)NCCc2[nH]c3c(Cl)c(Cl)cc(CC#N)c3c21 (stereo not drawn) [Example 31, 2-(7,8-Dichloro-1-methyl-2-oxo-1,2,3,4,5,6-hexahydroazepino[4,5-b]indol-10-yl)acetonitrile]",1120,39.5
"NC(=O)C(=O)Nc1cc(Cl)c(Cl)c2[nH]c3c(c12)CC(=O)NCC3 [Example 32, N^1-(7,8-Dichloro-2-oxo-1,2,3,4,5,6-hexahydroazepino[4,5-b]indol-10-yl)oxalamide]",1400,33.3
"Nc1noc(-c2cc(Cl)c(Cl)c3[nH]c4c(c23)CC(=O)NCC4)n1 [Example 33, 10-(3-Amino-1,2,4-oxadiazol-5-yl)-7,8-dichloro-3,4,5,6-tetrahydroazepino[4,5-b]indol-2(1H)-one]",1200,20.4
"Nc1cncc(-c2cc(Cl)c(Cl)c3[nH]c4c(c23)CC(=O)NCC4)n1 [Example 34, 10-(6-Aminopyrazin-2-yl)-7,8-dichloro-3,4,5,6-tetrahydroazepino[4,5-b]indol-2(1H)-one]",1730,39.5
"C[C@H]1C(=O)NCCc2[nH]c3c(Cl)c(Cl)cc(-c4cnn(C)n4)c3c21 [Example 38, (R)-7,8-Dichloro-1-methyl-10-(2-methyl-2H-1,2,3-triazol-4-yl)-3,4,5,6-tetrahydroazepino[4,5-b]indol-2(1H)-one Or (S′)-7,8-Dichloro-1-methyl-10-(2-methyl-2H-1,2,3-triazol-4-yl)-3,4,5,6-tetrahydroazepino[4,5-b]indol-2(1H)-one]",9800,1650
"COCC(=O)Nc1cc(Cl)c(Cl)c2[nH]c3c(c12)C(C)C(=O)NCC3 (stereo not drawn) [Example 39, N-(7,8-Dichloro-1-methyl-2-oxo-1,2,3,4,5,6-hexahydroazepino[4,5-b]indol-10-yl)-2-methoxyacetamide]",892,54.4
"CC1C(=O)NCCc2[nH]c3c(Cl)c(Cl)cc(NC(=O)C4CCO4)c3c21 (stereo not drawn) [Example 44, N-(7,8-Dichloro-1-methyl-2-oxo-1,2,3,4,5,6-hexahydroazepino[4,5-b]indol-10-yl)oxetane-2-carboxamide]",2790,38.9
"CCCNc1cc(Cl)c(Cl)c2[nH]c3c(c12)C(C)C(=O)NCC3 (stereo not drawn) [Example 45, 7,8-Dichloro-1-methyl-10-(propylamino)-3,4,5,6-tetrahydroazepino[4,5-b]indol-2(1H)-one]",2230,46.6
"CC1C(=O)NCCc2[nH]c3c(Cl)c(Cl)cc(NCc4cocn4)c3c21 (stereo not drawn) [Example 57, 7,8-Dichloro-1-methyl-10-((oxazol-4-ylmethyl)amino)-3,4,5,6-tetrahydroazepino[4,5-b]indol-2(1H)-one]",558,42.1
"Cc1conc1Nc1cc(Cl)c(Cl)c2[nH]c3c(c12)C(C)C(=O)NCC3 (stereo not drawn) [Example 67, 7,8-Dichloro-1-methyl-10-((4-methylisoxazol-3-yl)amino)-3,4,5,6-tetrahydroazepino[4,5-b]indol-2(1H)-one]",1030,30.6
"CC1C(=O)NCCc2[nH]c3c(Cl)c(Cl)cc(NCC(F)F)c3c21 (stereo not drawn) [Example 70, 7,8-Dichloro-10-((2,2-difluoroethyl)amino)-1-methyl-3,4,5,6-tetrahydroazepino[4,5-b]indol-2(1H)-one]",1290,30.5
"CC1C(=O)NCCc2[nH]c3c(Cl)c(Cl)cc(NCCC(F)F)c3c21 (stereo not drawn) [Example 71, 7,8-Dichloro-10-((3,3-difluoropropyl)amino)-1-methyl-3,4,5,6-tetrahydroazepino[4,5-b]indol-2(1H)-one]",2320,43
"CC1C(=O)NCCc2[nH]c3c(Cl)c(Cl)cc(OCC(F)(F)CO)c3c21 (stereo not drawn) [Example 72, 7,8-Dichloro-10-(2,2-difluoro-3-hydroxypropoxy)-1-methyl-3,4,5,6-tetrahydroazepino[4,5-b]indol-2(1H)-one]",662,23.3
"CC1C(=O)NCCc2[nH]c3c(Cl)c(Cl)cc(OCCF)c3c21 (stereo not drawn) [Example 75, 7,8-Dichloro-10-(2-fluoroethoxy)-1-methyl-3,4,5,6-tetrahydroazepino[4,5-b]indol-2(1H)-one]",1150,19
"CC1C(=O)NCCc2c1c1c(OCCCO)cc(Cl)c(Cl)c1n2C (stereo not drawn) [Example 77, 7,8-Dichloro-10-(3-hydroxypropoxy)-1,6-dimethyl-3,4,5,6-tetrahydroazepino[4,5-b]indol-2(1H)-one]",843,14.1
"CC1C(=O)NCCc2c1c1c(OCC#N)cc(Cl)c(Cl)c1n2C (stereo not drawn) [Example 78, 2-((7,8-Dichloro-1,6-dimethyl-2-oxo-1,2,3,4,5,6-hexahydroazepino[4,5-b]indol-10-yl)oxy)acetonitrile]",810,46.5
"COCCOc1cc(Cl)c(Cl)c2[nH]c3c(c12)C(C)C(=O)NCC3 (stereo not drawn) [Example 79, 7,8-Dichloro-10-(2-methoxyethoxy)-1-methyl-3,4,5,6-tetrahydroazepino[4,5-b]indol-2(1H)-one]",591,14.2
"CC(O)COc1cc(Cl)c(Cl)c2[nH]c3c(c12)CC(=O)NCC3 (stereo not drawn) [Example 87, 7,8-Dichloro-10-(2-hydroxypropoxy)-3,4,5,6-tetrahydroazepino[4,5-b]indol-2(1H)-one]",5970,36
"CC1C(=O)NCCc2[nH]c3c(Cl)c(Cl)cc(CCCO)c3c21 (stereo not drawn) [Example 88, 7,8-Dichloro-10-(3-hydroxypropyl)-1-methyl-3,4,5,6-tetrahydroazepino[4,5-b]indol-2(1H)-one]",3230,36.1
"CC1C(=O)NCCc2c1c1c(NCc3cnc[nH]3)cc(Cl)c(Cl)c1n2C (stereo not drawn) [Example 91, 10-(((1H-Imidazol-5-yl)methyl)amino)-7,8-dichloro-1,6-dimethyl-3,4,5,6-tetrahydroazepino[4,5-b]indol-2(1H)-one]",1190,20.7
"COCCNc1cc(Cl)c(Cl)c2c1c1c(n2C)CCNC(=O)C1C (stereo not drawn) [Example 96, 7,8-Dichloro-10-((2-methoxyethyl)amino)-1,6-dimethyl-3,4,5,6-tetrahydroazepino[4,5-b]indol-2(1H)-one]",> 10000,18.6
"COCCOc1cc(Cl)c(Cl)c2c1c1c(n2C)CCNC(=O)C1C (stereo not drawn) [Example 97, 7,8-Dichloro-10-(2-methoxyethoxy)-1,6-dimethyl-3,4,5,6-tetrahydroazepino[4,5-b]indol-2(1H)-one]",1150,18
"Cn1ncc(-c2cc(Cl)c(Cl)c3[nH]c4c(c23)CC(=O)NCC4CC(C)(C)O)n1 (stereo not drawn) [Example 102, 7,8-Dichloro-5-(2-hydroxy-2-methylpropyl)-10-(2-methyl-2H-1,2,3-triazol-4-yl)-3,4,5,6-tetrahydroazepino[4,5-b]indol-2(1H)-one]",727,23.2
"Cn1ncc(-c2cc(Cl)c(Cl)c3c2c2c(n3C)C(CC(C)(C)O)CNC(=O)C2)n1 (stereo not drawn) [Example 105, 7,8-Dichloro-5-(2-hydroxy-2-methylpropyl)-6-methyl-10-(2-methyl-2H-1,2,3-triazol-4-yl)-3,4,5,6-tetrahydroazepino[4,5-b]indol-2(1H)-one]",3250,38.8
